# Patent publication US12150995B2, “IRAK degraders and uses thereof” (Kymera Therapeutics, Inc., priority 2020, dated 2024)
# Target: T1, IRAK4 (Homo sapiens, UniProt Q9NWZ3)
# T1 construct: endogenous in cells; host or cells: OCI-LY10
# T1 sequence (Q9NWZ3 1-460): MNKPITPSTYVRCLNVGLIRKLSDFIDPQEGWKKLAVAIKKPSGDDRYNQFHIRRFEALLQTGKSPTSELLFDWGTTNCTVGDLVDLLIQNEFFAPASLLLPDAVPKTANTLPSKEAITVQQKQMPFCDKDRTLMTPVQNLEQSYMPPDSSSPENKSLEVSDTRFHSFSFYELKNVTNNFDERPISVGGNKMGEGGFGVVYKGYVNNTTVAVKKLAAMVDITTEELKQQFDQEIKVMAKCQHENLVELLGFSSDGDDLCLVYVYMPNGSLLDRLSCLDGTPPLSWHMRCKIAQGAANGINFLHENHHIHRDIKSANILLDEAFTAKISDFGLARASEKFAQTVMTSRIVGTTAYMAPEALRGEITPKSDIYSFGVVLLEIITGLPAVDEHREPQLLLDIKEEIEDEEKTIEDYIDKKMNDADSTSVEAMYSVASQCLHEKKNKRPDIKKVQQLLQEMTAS
# Experiment: IRAK4 MSD Degradation in OCI-LY10
# Type: cell-based
# Conditions: OCI-LY10 cells, Meso Scale Discovery, incubated 4 to 24 hours
# Summary of the method: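 IRAK4 degradation was quantified by Meso Scale electrochemiluminescence (anti-IRAK4 capture and detection antibodies) in lysates of treated OCI-LY10 cells. Compounds were dosed at 8 concentrations (1:3 dilutions, top 1 to 10 μM) for 4 to 24 h; DC50 derived by three-parameter logistic fitting.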
row,SMILES,DC50 [µM]
1,Cc1cccc(C(=O)Nc2cc3sc([C@H]4CC[C@H](CN5CCO[C@@H](CCCNc6cccc7c6C(=O)N(C6CCC(=O)NC6=O)C7=O)C5)CC4)nc3cc2C(C)(C)O)n1 (some centres unmarked) [I-472],0.05 to 0.1
2,Cn1c(=O)n(C2CCC(=O)NC2=O)c2ccc(Cl)c(C3CCN(C[C@H]4C[C@H](n5cc6cc(NC(=O)c7cccc(C(F)(F)F)n7)c(Cl)cc6n5)C4)CC3)c21 (some centres unmarked) [I-144],0.05 to 0.1
3,Cc1cccc(C(=O)Nc2cc3sc([C@H]4CC[C@H](CN5C[C@H]6C[C@@H]5CN6CCCNc5cccc6c5C(=O)N(C5CCC(=O)NC5=O)C6=O)CC4)nc3cc2C(C)(C)O)n1 (some centres unmarked) [I-432],0.1 to 0.2
4,COc1cc2nc([C@H]3CC[C@H](CN(C)CCCCNc4cccc5c4C(=O)N(C4CCC(=O)NC4=O)C5=O)CC3)sc2cc1NC(=O)c1cncc(F)c1 (some centres unmarked) [I-479],> 0.2
5,CN(CCCNc1cccc2c1C(=O)N(C1CCC(=O)NC1=O)C2=O)C(=O)[C@H]1CC[C@H](c2nc3cc(C(C)(C)O)c(NC(=O)c4cccc(C(F)(F)F)n4)cc3s2)CC1 (some centres unmarked) [I-489],> 0.2
6,CC(C)(O)c1cc2nc([C@H]3CC[C@H](C(=O)N4CCN(CCCNc5cccc6c5C(=O)N(C5CCC(=O)NC5=O)C6=O)CC4)CC3)sc2cc1NC(=O)c1cncc(C#N)c1 (some centres unmarked) [I-451],0.05 to 0.1
7,COc1cc2nc([C@H]3CC[C@H](CN4CC5(CC(CCNc6cccc7c6C(=O)N(C6CCC(=O)NC6=O)C7=O)C5)C4)CC3)cn2cc1NC(=O)c1cccc(C(F)(F)F)n1 (some centres unmarked) [I-10],0.05 to 0.1
8,COc1cncc(C(=O)Nc2cc3sc([C@H]4CC[C@H](CN(C)CCCNc5cccc6c5C(=O)N(C5CCC(=O)NC5=O)C6=O)CC4)nc3cc2OC)c1 (some centres unmarked) [I-450],> 0.2
9,COc1cc2nc([C@H]3CC[C@H](CN4CC5(CC(CCNc6cccc7c6C(=O)N(C6CCC(=O)NC6=O)C7=O)C5)C4)CC3)n(C)c2cc1NC(=O)c1cccc(C(F)(F)F)n1 (some centres unmarked) [I-3],0.05 to 0.1
10,COc1cc2nn([C@H]3CC[C@H](CN4CCN(c5ccc(N6CCC(=O)NC6=O)cc5)CC4)CC3)cc2cc1NC(=O)c1cccc(C(F)(F)F)n1 [I-312],> 0.2
11,CC(C)Nc1cc(-n2ccc3cc(F)cnc32)ncc1C(=O)N[C@H]1CC[C@H](CN2CCN(c3ccc4c(c3)n(C)c(=O)n4C3CCC(=O)NC3=O)CC2)CC1 (some centres unmarked) [I-267],> 0.2
12,COc1ccc2c(c1C1CCN(C[C@H]3CC[C@H](n4cc5cc(NC(=O)c6cccc(C(F)(F)F)n6)ncc5n4)CC3)CC1)n(C)c(=O)n2C1CCC(=O)N(C)C1=O (some centres unmarked) [I-245],> 0.2
13,"Cc1cc2nn([C@H]3CC[C@H](CN4CCN(c5cccc6c5n(C)c(=O)n6[C@H]5CCC(=O)NC5=O)CC4)CC3)cc2cc1NC(=O)c1cccc(C(F)(F)F)n1 [I-399, N-[2-[4-[[4-[1-[(3S)-2,6-dioxo-3-piperidyl]-3-methyl-2-oxo-benzimidazol-4-yl]piperazin-1-yl]methyl]cyclohexyl]-6-methyl-indazol-5-yl]-6-(trifluoromethyl)pyridine-2-carboxamide]",0.01 to 0.05
14,CC(C)(O)c1cc2nc([C@H]3CC[C@H](CN4CC5(CC(CCNc6cccc7c6C(=O)N(C6CCC(=O)NC6=O)C7=O)C5)C4)CC3)cn2cc1NC(=O)c1cccc(C(F)(F)F)n1 (some centres unmarked) [I-12],0.01 to 0.05
15,COc1ccc2c(c1C1CCN(C[C@H]3CC[C@H](n4cc5cc(NC(=O)c6cccc(C(F)(F)F)n6)c(F)cc5n4)CC3)CC1)n(C)c(=O)n2C1CCC(=O)NC1=O (some centres unmarked) [I-47],0.01 to 0.05
16,Cc1cccc(C(=O)Nc2cc3sc([C@H]4CC[C@H](CN5CCN(CCNc6cccc7c6C(=O)N(C6CCC(=O)NC6=O)C7=O)[C@@H](C)C5)CC4)nc3cc2C(C)(C)O)n1 (some centres unmarked) [I-467],0.01 to 0.05
17,COc1cc2nn([C@H]3CC[C@H](CN4CCC5(CC4)CC(CNc4cccc6c4C(=O)N(C4CCC(=O)NC4=O)C6=O)C5)CC3)cc2cc1NC(=O)c1cccc(C(C)(F)F)n1 (some centres unmarked) [I-4],0.05 to 0.1
18,"N#Cc1cnc2c(C(=O)Nc3ccc4nn([C@H]5CC[C@H](CN6CCC(c7cccc8c(N9CCC(=O)NC9=O)cncc78)CC6)CC5)cc4c3)cnn2c1 [I-204, 6-Cyano-N-[2-[4-[[4-[4-(2,4-dioxohexahydropyrimidin-1-yl)-8-isoquinolyl]-1-piperidyl]methyl]cyclohexyl]indazol-5-yl]pyrazolo[1,5-a]pyrimidine-3-carboxamide]",0.01 to 0.05

# Continued, values first:
row,DC50 [µM],SMILES
1,< 0.01,CC(C)Nc1cc(-n2ccc3cc(C#N)cnc32)ncc1C(=O)N[C@H]1CC[C@H](CN(C)C2CCN(c3cccc4c3n(C)c(=O)n4C3CCC(=O)NC3=O)CC2)CC1 (some centres unmarked) [I-118]
2,< 0.01,Cn1c(=O)n(C2CCC(=O)NC2=O)c2cccc(C3CCN(C[C@H]4CC[C@H](n5cc6cc(NC(=O)c7cccc(C(F)(F)F)n7)c(N7C[C@H]8C[C@@H]7CO8)cc6n5)CC4)CC3)c21 (some centres unmarked) [I-44]
3,0.01 to 0.05,Cn1c(=O)n(C2CCC(=O)NC2=O)c2cccc(N3CCN(C[C@H]4CC[C@H](n5cc6cc(NC(=O)c7cccc(C(F)(F)F)n7)c(Cl)cc6n5)CC4)CC3)c21 (some centres unmarked) [I-360]
4,< 0.01,"COc1cc2nn([C@H]3C[C@@H](CN(C)C4CCN(c5cccc6c5n(C)c(=O)n6C5CCC(=O)NC5=O)CC4)C3)cc2cc1NC(=O)c1cccc(C(F)(F)F)n1 (some centres unmarked) [I-32, N-[2-[3-[[[1-[1-(2,6-dioxo-3-piperidyl)-3-methyl-2-oxo-benzimidazol-4-yl]-4-piperidyl]-methyl-amino]methyl]cyclobutyl]-6-methoxy-indazol-5-yl]-6-(trifluoromethyl)pyridine-2-carboxamide]"
5,< 0.01,C[C@@H]1CN(C[C@H]2CC[C@H](n3cc4cc(NC(=O)c5cccc(C(F)(F)F)n5)c(C(C)(C)O)cc4n3)CC2)CCN1c1cccc2c(N3CCC(=O)NC3=O)cncc12 [I-257]
6,< 0.01,Cn1c(=O)n(C2CCC(=O)NC2=O)c2cccc(N3CCN(C[C@H]4CC[C@H](n5cc6cc(NC(=O)c7cccc(C(F)(F)F)n7)c(F)cc6n5)CC4)CC3)c21 (some centres unmarked) [I-359]
7,0.01 to 0.05,C=C/C(NCCCN1CCN(C[C@H]2CC[C@H](c3nc4cc(C(C)(C)O)c(NC(=O)c5cccc(C)n5)cc4s3)CC2)C[C@@H]1C)=C1/C(=O)N(C2CCC(=O)NC2=O)C(=O)/C1=C/C (some centres unmarked) [I-443]
8,0.01 to 0.05,COc1cc2nn([C@H]3CC[C@H](CN4CCC(O[C@H]5C[C@@H](c6cccc7c6n(C)c(=O)n7C6CCC(=O)NC6=O)C5)CC4)CC3)cc2cc1NC(=O)c1cccc(C(F)(F)F)n1 (some centres unmarked) [I-385]
9,< 0.01,Cn1c(=O)n(C2CCC(=O)NC2=O)c2cccc(C3CCN(C[C@H]4CC[C@H](n5cc6cc(NC(=O)c7cccc(C(F)(F)F)n7)ccc6n5)CC4)CC3)c21 (some centres unmarked) [I-57]
10,< 0.01,COc1cc2nn([C@H]3CC[C@H](CN4CCCN(c5cccc6c5n(C)c(=O)n6C5CCC(=O)NC5=O)CC4)CC3)cc2cc1NC(=O)c1cccc(C(F)(F)F)n1 (some centres unmarked) [I-255]
11,< 0.01,COc1cc2nn([C@H]3CC[C@H](CN4CC=C(c5ccc6c(c5)n(C)c(=O)n6C5CCC(=O)NC5=O)C4)CC3)cc2cc1NC(=O)c1cccc(C(F)(F)F)n1 (some centres unmarked) [I-366]
12,< 0.01,COc1cc2nn([C@H]3CC[C@@H](CN4CCN(CC#Cc5cccc6c5n(C)c(=O)n6C5CCC(=O)NC5=O)CC4)CC3)cc2cc1NC(=O)c1cccc(C(F)(F)F)n1 (some centres unmarked) [I-327]
13,< 0.01,Cn1c(=O)n(C2CCC(=O)NC2=O)c2cccc(C3CCN(C[C@H]4CC[C@H](n5cc6cc(NC(=O)c7cccc(C(F)(F)F)n7)ncc6n5)CC4)CC3)c21 (some centres unmarked) [I-62]
14,< 0.01,COc1cc2nn([C@H]3CC[C@H](CN4CCC(c5c(C)ccc6c5n(C)c(=O)n6C5CCC(=O)NC5=O)CC4)CC3)cc2cc1NC(=O)c1cncc(Cl)c1 (some centres unmarked) [I-110]
15,< 0.01,CN(C[C@H]1CC[C@H](n2cc3cc(NC(=O)c4cccc(C(F)(F)F)n4)ccc3n2)CC1)C1CCN(c2cccc3c2n(C)c(=O)n3C2CCC(=O)NC2=O)CC1 (some centres unmarked) [I-58]
16,< 0.01,Cn1c(=O)n(C2CCC(=O)NC2=O)c2cccc(C3CCN(C[C@H]4CC[C@H](n5cc6cc(NC(=O)c7cccc(C(F)(F)F)n7)c(N7CCOCC7)cc6n5)CC4)CC3)c21 (some centres unmarked) [I-38]
17,< 0.01,Cn1c(=O)n(C2CCC(=O)NC2=O)c2cccc(C3CCN(C[C@H]4CC[C@H](N5Cc6cc(NC(=O)c7cccc(C(F)(F)F)n7)c(N7C[C@H]8C[C@@H]7CO8)cc6C5=O)CC4)CC3)c21 (some centres unmarked) [I-29]
18,< 0.01,CC(C)(O)c1cc2nn([C@H]3CC[C@H](CN4C[C@H]5C[C@@H]4CN5c4cccc5c(N6CCC(=O)NC6=O)cncc45)CC3)cc2cc1NC(=O)c1cccc(C(F)(F)F)n1 [I-229]
19,< 0.01,Cc1cc2nn([C@H]3CC[C@H](CN4C5CCC4CN(c4cccc6c4n(C)c(=O)n6C4CCC(=O)NC4=O)C5)CC3)cc2cc1NC(=O)c1cccc(C(F)(F)F)n1 (some centres unmarked) [I-398]
20,< 0.01,Cn1c(=O)n(C2CCC(=O)NC2=O)c2ccc(F)c(C3CCN(C[C@H]4CC[C@H](n5cc6cc(NC(=O)c7cccc(C(F)(F)F)n7)ncc6n5)CC4)CC3)c21 (some centres unmarked) [I-82]
21,< 0.01,Cn1c(=O)n(C2CCC(=O)NC2=O)c2cccc(N3CCN(C[C@H]4CC[C@H](n5cc6cc(NC(=O)c7cccc(C(F)(F)F)n7)c(N7C[C@@H]8C[C@H]7CO8)cc6n5)CC4)CC3)c21 (some centres unmarked) [I-383]
22,< 0.01,Cc1ccc2c(c1C1CCN(C[C@H]3CC[C@H](n4cc5cc(NC(=O)c6cccc(C(F)(F)F)n6)ncc5n4)CC3)CC1)n(C)c(=O)n2C1CCC(=O)NC1=O (some centres unmarked) [I-102]
23,< 0.01,Cn1c(=O)n(C2CCC(=O)NC2=O)c2cccc(C3CCN(C[C@H]4CC[C@H](N5Cc6cc(NC(=O)c7cccc(C(F)(F)F)n7)c(N7C[C@@H]8C[C@H]7CO8)cc6C5=O)CC4)CC3)c21 (some centres unmarked) [I-27]
